Target: HAT p300 (histone acetyltransferase p300) (Homo sapiens, UniProt Q09472)
Experiment: HAT activity kit (Biovision K332): inhibition of HAT activity of p300
Assay type: biochemical
Details: for IC50: 0.5, 1, 10 or 100 μM; for HAT activity inhibitory effect (HAT p300 activity inhibited): Synthesis Examples diluted to 100 μM
Experimental: Candidates 1 to 67, which are HAT inhibitors manufactured based on the PCAF structure, and HAT-24, HAT-26, and HAT-28 were diluted to 100 μM, and the degree of inhibition of HAT activity of p300 (inhibitory activity) was then determined using a kit for measuring HAT activity (Biovision, Cat No. K332, U.S.A) according to the method provided by the manufacturer. Here, the tissue was treated with C646 (HAT inhibitor) as a positive control.
Candidates 1 to 14 having a good HAT activity inhibitory effect in Section were diluted to concentrations of 0.5 μM, 1 μM, 10 μM, and 100 μM. Thereafter, the degree of inhibition of HAT activity was determined in the same manner as in Section.
Each of Synthesis Examples 1 to 24 was diluted to 100 μM, and the degree of inhibition of HAT p300 activity was determined in the same manner as in Section. Here, the tissues were treated with C646 and Candidate 12 (HAT-12) as the control instead of Synthesis Examples 1 to 24.

Sequence of HAT p300 (histone acetyltransferase p300) (Q09472 whole entry): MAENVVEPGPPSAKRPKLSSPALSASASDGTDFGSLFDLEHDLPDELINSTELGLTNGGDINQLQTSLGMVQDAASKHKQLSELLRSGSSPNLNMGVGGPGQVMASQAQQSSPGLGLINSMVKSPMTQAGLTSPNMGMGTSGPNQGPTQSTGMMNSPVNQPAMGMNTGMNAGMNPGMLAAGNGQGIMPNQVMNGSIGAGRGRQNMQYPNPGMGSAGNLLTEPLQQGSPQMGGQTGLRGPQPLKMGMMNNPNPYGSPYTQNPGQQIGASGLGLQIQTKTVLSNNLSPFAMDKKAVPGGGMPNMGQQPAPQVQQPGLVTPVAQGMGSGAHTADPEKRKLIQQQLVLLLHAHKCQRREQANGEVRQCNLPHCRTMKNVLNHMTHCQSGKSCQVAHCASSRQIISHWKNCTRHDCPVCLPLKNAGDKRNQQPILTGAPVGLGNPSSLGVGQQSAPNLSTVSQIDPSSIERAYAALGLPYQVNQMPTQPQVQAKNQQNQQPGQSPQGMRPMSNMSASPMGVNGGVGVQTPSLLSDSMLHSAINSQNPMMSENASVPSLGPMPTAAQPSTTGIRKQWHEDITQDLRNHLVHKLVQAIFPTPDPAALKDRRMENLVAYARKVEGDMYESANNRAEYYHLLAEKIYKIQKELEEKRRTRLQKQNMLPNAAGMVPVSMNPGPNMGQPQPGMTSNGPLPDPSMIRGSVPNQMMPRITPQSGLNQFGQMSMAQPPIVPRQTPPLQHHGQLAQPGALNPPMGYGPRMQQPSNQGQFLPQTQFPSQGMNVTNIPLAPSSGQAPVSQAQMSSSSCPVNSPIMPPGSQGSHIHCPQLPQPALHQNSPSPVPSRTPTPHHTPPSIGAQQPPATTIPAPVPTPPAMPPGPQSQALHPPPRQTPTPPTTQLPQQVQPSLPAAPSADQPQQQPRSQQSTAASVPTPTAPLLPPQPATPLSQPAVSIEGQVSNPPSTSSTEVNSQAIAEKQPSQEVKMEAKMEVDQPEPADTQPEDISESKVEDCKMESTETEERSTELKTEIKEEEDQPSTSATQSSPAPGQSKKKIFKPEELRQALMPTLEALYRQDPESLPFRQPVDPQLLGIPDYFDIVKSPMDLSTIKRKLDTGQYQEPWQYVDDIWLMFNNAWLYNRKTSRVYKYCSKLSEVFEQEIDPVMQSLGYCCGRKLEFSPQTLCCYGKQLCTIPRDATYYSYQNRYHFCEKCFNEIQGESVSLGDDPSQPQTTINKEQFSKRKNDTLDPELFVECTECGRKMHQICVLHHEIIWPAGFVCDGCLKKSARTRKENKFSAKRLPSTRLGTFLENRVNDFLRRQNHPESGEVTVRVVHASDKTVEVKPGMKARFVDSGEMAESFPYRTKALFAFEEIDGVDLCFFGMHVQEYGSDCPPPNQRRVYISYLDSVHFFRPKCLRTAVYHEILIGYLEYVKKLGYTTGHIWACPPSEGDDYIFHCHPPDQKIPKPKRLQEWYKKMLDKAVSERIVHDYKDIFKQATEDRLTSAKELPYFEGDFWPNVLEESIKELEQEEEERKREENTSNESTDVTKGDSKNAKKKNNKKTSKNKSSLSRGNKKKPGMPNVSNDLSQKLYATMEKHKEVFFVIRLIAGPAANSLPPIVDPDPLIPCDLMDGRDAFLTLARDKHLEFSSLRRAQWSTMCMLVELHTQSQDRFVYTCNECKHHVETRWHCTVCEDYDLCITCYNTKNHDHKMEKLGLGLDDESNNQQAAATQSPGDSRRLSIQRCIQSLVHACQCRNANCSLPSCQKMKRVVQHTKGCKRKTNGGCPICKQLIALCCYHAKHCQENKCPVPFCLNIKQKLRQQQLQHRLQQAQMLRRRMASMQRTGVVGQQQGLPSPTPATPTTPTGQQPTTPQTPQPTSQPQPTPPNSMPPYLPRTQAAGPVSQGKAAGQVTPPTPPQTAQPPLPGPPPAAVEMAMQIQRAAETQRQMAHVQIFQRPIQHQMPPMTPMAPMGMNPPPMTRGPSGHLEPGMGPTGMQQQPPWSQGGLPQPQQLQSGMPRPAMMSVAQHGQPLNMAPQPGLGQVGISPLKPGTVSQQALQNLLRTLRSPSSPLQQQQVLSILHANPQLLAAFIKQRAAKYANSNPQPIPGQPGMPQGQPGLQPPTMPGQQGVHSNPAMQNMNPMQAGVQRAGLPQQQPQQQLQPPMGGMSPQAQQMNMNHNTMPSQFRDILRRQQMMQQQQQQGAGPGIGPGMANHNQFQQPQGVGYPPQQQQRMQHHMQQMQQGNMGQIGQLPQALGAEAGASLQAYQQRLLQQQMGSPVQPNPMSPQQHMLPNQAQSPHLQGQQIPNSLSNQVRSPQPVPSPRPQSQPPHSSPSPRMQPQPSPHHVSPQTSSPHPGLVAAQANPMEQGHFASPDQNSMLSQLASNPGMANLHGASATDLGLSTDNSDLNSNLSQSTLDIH

SMILES	IC50 [µM]	HAT activity inhibitory effect (HAT p300 activity inhibited) [%]
COc1cc(/C=C/C(=O)c2cccc(C(N)=O)c2)cc(I)c1OCc1cccc(C(N)=O)c1 [Synthesis Example 6, (E)-3-(3-(4-((3-carbamoylbenzyl)oxy)-3-iodo-5-methoxyphenyl)acryloyl) benzamide]	0.87	~100
COc1cc(/C=C/C(=O)c2cccc(O)c2)cc(Br)c1OCc1cccc(C(N)=O)c1 [Synthesis Example 8]	1.06	~100

Reference: patent publication US20230011131A1, “NOVEL COMPOUND FOR INHIBITING HISTONE ACETYLTRANSFERASE P300 AND ANTI-FIBROSIS COMPOSITION COMPRISING SAME” (REFURE LIFE SCIENCE INC., priority 2019, published 2023)
